How the values were obtained:
[1] = biological target: T1, Peroxisome proliferator-activated receptor gamma (Homo sapiens, UniProt P37231); experiment: Activity at PPARgamma
T1 sequence (P37231 whole entry): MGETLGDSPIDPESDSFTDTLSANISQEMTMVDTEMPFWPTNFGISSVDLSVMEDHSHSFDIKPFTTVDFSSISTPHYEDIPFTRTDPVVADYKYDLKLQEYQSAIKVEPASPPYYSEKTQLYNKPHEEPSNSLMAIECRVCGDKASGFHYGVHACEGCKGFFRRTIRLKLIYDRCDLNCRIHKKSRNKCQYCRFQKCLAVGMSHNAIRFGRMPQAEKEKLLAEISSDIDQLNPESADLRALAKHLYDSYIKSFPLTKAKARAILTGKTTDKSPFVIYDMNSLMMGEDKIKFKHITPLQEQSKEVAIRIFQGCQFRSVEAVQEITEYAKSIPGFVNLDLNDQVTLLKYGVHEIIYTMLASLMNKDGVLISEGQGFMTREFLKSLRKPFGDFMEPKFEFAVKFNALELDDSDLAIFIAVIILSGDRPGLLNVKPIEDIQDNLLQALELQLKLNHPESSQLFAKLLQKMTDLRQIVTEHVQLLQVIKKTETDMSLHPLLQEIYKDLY

[2] = biological target: T2, Peroxisome proliferator-activated receptor alpha (Homo sapiens, UniProt Q07869); experiment: Activity at PPARalpha
T2 sequence (Q07869 whole entry): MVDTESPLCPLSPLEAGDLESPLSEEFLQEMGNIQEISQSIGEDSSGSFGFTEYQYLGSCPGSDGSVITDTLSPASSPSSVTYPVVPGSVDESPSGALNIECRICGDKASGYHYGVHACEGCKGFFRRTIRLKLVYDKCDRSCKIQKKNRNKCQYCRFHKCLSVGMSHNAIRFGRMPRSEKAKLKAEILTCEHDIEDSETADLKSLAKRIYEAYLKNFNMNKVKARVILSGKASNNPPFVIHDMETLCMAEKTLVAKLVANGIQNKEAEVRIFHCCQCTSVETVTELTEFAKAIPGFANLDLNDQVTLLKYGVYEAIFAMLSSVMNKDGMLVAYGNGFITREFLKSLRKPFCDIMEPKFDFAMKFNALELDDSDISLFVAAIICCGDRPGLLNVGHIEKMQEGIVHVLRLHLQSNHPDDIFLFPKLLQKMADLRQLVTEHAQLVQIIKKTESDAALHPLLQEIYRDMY

[3] = biological target: T3, Peroxisome proliferator-activated receptor delta (Homo sapiens, UniProt Q03181); experiment: Agonist activity at human PPARdelta; assay type: functional
T3 sequence (Q03181 whole entry): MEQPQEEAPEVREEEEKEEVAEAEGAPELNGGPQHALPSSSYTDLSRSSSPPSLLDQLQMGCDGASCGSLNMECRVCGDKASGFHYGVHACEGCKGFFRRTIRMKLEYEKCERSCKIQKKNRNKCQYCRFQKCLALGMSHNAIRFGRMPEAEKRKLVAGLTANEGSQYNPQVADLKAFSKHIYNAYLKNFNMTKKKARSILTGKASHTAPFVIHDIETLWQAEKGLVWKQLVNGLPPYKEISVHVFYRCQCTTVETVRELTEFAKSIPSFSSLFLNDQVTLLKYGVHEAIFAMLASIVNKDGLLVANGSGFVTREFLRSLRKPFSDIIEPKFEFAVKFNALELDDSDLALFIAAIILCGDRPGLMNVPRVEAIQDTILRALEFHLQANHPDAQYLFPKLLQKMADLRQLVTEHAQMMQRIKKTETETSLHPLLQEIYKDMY

SMILES | EC50 [1] [nM] | EC50 [2] [nM] | EC50 [3] [nM]
CCCC(CCC)(COc1ccc(C(F)(F)F)cc1)CSc1ccc(OCC(=O)O)c(C)c1 |  |  | 8.6
Cc1cc(SCC(COc2ccc(C(F)(F)F)cc2)=C(F)F)ccc1OCC(=O)O |  |  | 69.6
Cc1cc(SC/C(=C/C#N)COc2ccc(C(F)(F)F)cc2)ccc1OCC(=O)O |  |  | 35.4
C=C(COc1ccc(C(F)(F)F)cc1)CSc1ccc(OCC(=O)O)c(C)c1 | > 1000 | > 1000 | 
C=C(COc1ccc(C(F)(F)F)cc1)COc1ccc(OCC(=O)O)c(C)c1 | > 1000 | > 1000 | 
C=C(COc1ccc(C(F)(F)F)cc1)CSc1ccc(OCC(=O)O)cc1Cl | > 1000 | > 1000 | > 500
C=C(COc1ccc(C(F)(F)F)cc1)CSc1ccc(OCC(=O)O)c(OC)c1 | > 1000 | > 1000 | > 1000
C=C(COc1ccc(OC)cc1)CSc1ccc(OCC(=O)O)c(C)c1 | > 1000 | > 1000 | 
C=C(COc1ccc(Cl)cc1)CSc1ccc(OCC(=O)O)c(C)c1 | > 1000 | > 1000 | 65.5

The next lines start with the values.

EC50 [1] [nM] | EC50 [2] [nM] | EC50 [3] [nM] | SMILES
> 1000 | > 1000 |  | C=C(CCc1ccc(C(F)(F)F)cc1)CSc1ccc(OCC(=O)O)c(C)c1
> 1000 | > 1000 | > 500 | C=C(COc1ccc(Cl)c(C(F)(F)F)c1)CSc1ccc(OCC(=O)O)c(C)c1
> 1000 | > 1000 | > 1000 | C=C(COc1ccc(C(F)(F)F)cc1)CSc1ccc(OCC(=O)O)c(C(F)(F)F)c1
> 1000 | > 1000 | 49.8 | C=C(COc1ccc(Cl)c(Cl)c1)CSc1ccc(OCC(=O)O)c(C)c1
> 1000 | > 1000 | 46.7 | C=C(COc1ccc(C(F)(F)F)cc1)CSc1ccc(OCC(=O)O)c(Cl)c1
> 1000 | > 1000 |  | C=C(CSc1ccc(C(F)(F)F)cc1)CSc1ccc(OCC(=O)O)c(C)c1
> 1000 | > 1000 |  | C=C(COc1ccc(Cl)cc1Cl)CSc1ccc(OCC(=O)O)c(C)c1
> 1000 | > 1000 | > 500 | C=C(CNc1ccc(C(F)(F)F)cc1)CSc1ccc(OCC(=O)O)c(C)c1
> 1000 | > 1000 |  | C=C(COc1ccccc1)CSc1ccc(OCC(=O)O)c(C)c1
> 1000 | > 1000 | 28.4 | C=C(COc1ccc(OC(F)(F)F)cc1)CSc1ccc(OCC(=O)O)c(C)c1
> 1000 | > 1000 |  | C=C(COc1ccc(N(C)C)cc1)CSc1ccc(OCC(=O)O)c(C)c1

Reference: ChEMBL document CHEMBL1152720, “Discovery and SAR of para-alkylthiophenoxyacetic acids as potent and selective PPARdelta agonists” (Bioorg Med Chem Lett, 2009)
